Experimental findings from US9995730B2, “Hypoxia Inducible Factor (HIF) Activity Reporter Cell Line” (Universiti Putra Malaysia (UPM), priority 2012, dated 2018) are described below.

In one data set the test system is HIF. Briefly: HIF activity reporter assay (single luciferase assay, 4XEPO-HRE-FLuc stable Saos-2 clone 3). It counts as cell-based, human. The note with it: for reporter signal intensities: FIGS. 9A and B legend. On the procedure:
To confirm the HIF reporter activity of neomycin-resistant parental population, a single luciferase assay was conducted. Initially, 2.5×10^4 of the cells were plated in wells of a 48-well plates in antibiotic-free DMEM with 10% FBS for 16 hours. One of the plates was then incubated for 24 hours in a normoxic (21% 02) gaseous atmosphere in a humidified CO2 incubator while the other was incubated in a hypoxic (0.5% 02) gaseous environment in a hypoxic chamber (BioSpherix, USA) controlled by an oxygen regulator (ProOx model 110, BioSpherix, USA. After 24 hours of exposure to different oxygen concentrations, Bright-Glo™ Luciferase Assay (Promega, USA) was conducted to analyse the HIF reporter activity. Initially, growth media in each well was discarded and the cells were rinsed once with 300 μl of 1×PBS. Room temperature-equilibrated Glo Lysis Buffer (GLB; 60 μl) was then added into the wells. Plates were then gently rocked on a shaker for 5 min at room temperature. Cell lysis was confirmed visually by observing the wells of the 48-well plate under a light microscope. Thirty microliters of the resulting cell lysates were then transferred into individual glass vials. Bright-Glo™ Assay Reagent was then added into each tube at a 1:1 (v/v) ratio. Luminescence intensity was immediately read and recorded by a Luminometer (Sirius-2, Titertek-Berthold).
(§1) To verify the property of the stable single cell population as an assay system to measure HIF activity, a proof of concept study was performed with commercially available and known HIF inhibitors. […] Treatment of these drugs in certain cancer cells leads to cell death. To confirm that the inhibition of bioluminescence in our cell assay system is due to HIF inhibition rather than this cytotoxic effect, we simultaneously determined the viability of cells under various concentrations of each drug used for the inhibition assay. The 3-(4,5-dimethylthiazol-2-yl)-2,5-[…] bromide MTT assay was used. […] The cells were then incubated in either normoxic or hypoxic conditions for 24 hours. After the treatment, cell culture media was replaced with fresh serum-free DMEM containing 0.5 mg/ml MTT. After 4 hours of incubation in a humidified CO2 incubator at 37° C., formazan precipitates were dissolved with 100 μl of DMSO. The resulting reaction was read using a microplate reader at 570 nm absorbance and 630 nm as the reference wavelength. The half maximal inhibitory concentration (IC50) of each drug towards the cells was determined by plotting graphs using the Graphpad Prism 5 software. HIF inhibitory effects at the various concentrations of drugs tested were also measured using the single luciferase assay system. A correlation between the drugs' effects on cell viability and HIF inhibition was then evaluated.

In data set [1] the test system is clone 3 cells (stable Saos-2 osteosarcoma clone). Briefly: MTT cell viability assay. In kind it is cell-based, human. On the procedure:
as §1, with “To confirm that the inhibition of bioluminescence in our cell assay system is due to HIF inhibition rather than this cytotoxic effect, we simultaneously determined the viability of cells under various concentrations of each drug used for the inhibition assay.” left out

Each structure is given as a SMILES string.

Consider `CC(C)C[C@H](NC(=O)[C@H](Cc1ccccc1)NC(=O)c1cnccn1)B(O)O` [Bortezomib], for which the reporter signal intensities result with HIF is listed as “reduction of reporter signal intensities”. Besides, the hypoxia-induced luciferase signal result in the data set on HIF (clone 3 cells, hypoxia, concentrations of up to 500 nM) is listed as “significantly reduced”. The cell viability entry is recorded as “the inhibition was associated with cell death” in data set [1] (concentrations higher than 500 nM) and “without affecting cell viability” in data set [1] (concentrations of up to 500 nM).
Regarding `N.N.[Cl][Pt][Cl]` [cisplatin], the reporter signal intensities entry with HIF is recorded as “reduction of reporter signal intensities”. The “inhibition of luciferase signals” value in the data set on HIF (hypoxic clone 3, 25 μM concentration) was ~60%.
